Experiments:
irritable bowel syndrome = assay: Clinical Study 2, controlled (slow) release darifenacin once daily vs placebo in irritable bowel syndrome; format: in vivo, human; conditions: 12 weeks; for Constipation % of patients reporting AEs / Dry Mouth % of patients reporting AEs / Global Rating % Reduction from baseline / Loose Stool % Reduction from baseline / Pain Score % Reduction from baseline / Total AE % of patients reporting AEs / Urgency % Reduction from baseline / Vision % of patients reporting AEs: uncorrected
From the text: The invention may be illustrated by the following clinical studies wherein the treatment of irritable bowel syndrome using darifenacin administered as a once-daily controlled (slow) release formulation in accordance with the prior art is compared with treatment using darifenacin administered as a thrice daily immediate release formulation in accordance with the present invention. Specifically, Clinical Studies 1 and 2 used controlled (slow) release formulations of darifenacin administered once daily (od) and Clinical Study 3 used an immediate release formulation of darifenacin administered three times daily (tid).
During each clinical study, four efficacy measures of irritable bowel syndrome severity were measured, viz. ‘Pain Score’ (Average daily pain score, a composite of severity and number of days of pain), ‘Loose Stool’ (Number of days on which loose or watery stool occurred), ‘Urgency’ (Number of days on which urgency occured) and so-called ‘Global Rating’ (Patient rating of their condition taking into account all symptoms, 0=no problems). Adverse events (AE) such as constipation, dry mouth and visual abnormalities were also recorded.
Clinical Study 2 was a multi-centre, double-blind, randomised, placebo-controlled parallel group study in which four dose strengths of darifenacin of 3.75 mg, 7.5 mg, 15 mg and 30 mg dosed od were compared with placebo. Treatment lasted 12 weeks following a 2-week run-in period.
The controlled (slow) release dosage forms of darifenacin used in Clinical Studies 1 and 2 were 3.75 mg, 7.5 mg, 15.0 mg and 30.0 mg tablets having the following compositions: […]

[1] = Day 6 plasma concentrations of darifenacin, four-way crossover study in healthy male subjects; format: in vivo, human; conditions: 7.5 mg tid immediate release capsule vs 20 mg SR od matrix tablet, healthy volunteers
[2] = controlled release tablet 3.75 mg od
[3] = controlled release tablet 7.5 mg od
[4] = controlled release tablet 15 mg od
[5] = controlled release tablet 30 mg od

NC(=O)C(c1ccccc1)(c1ccccc1)[C@@H]1CCN(CCc2ccc3c(c2)CCO3)C1 [darifenacin]
Constipation % of patients reporting AEs corrected for placebo (irritable bowel syndrome; [2]): 4.5%
Dry Mouth % of patients reporting AEs corrected for placebo (irritable bowel syndrome; [2]): 4.4%
Global Rating % Reduction from baseline corrected for placebo (irritable bowel syndrome; [2]): −7%
Loose Stool % Reduction from baseline corrected for placebo (irritable bowel syndrome; [2]): 8%
Pain Score % Reduction from baseline corrected for placebo (irritable bowel syndrome; [2]): −9%
Total AE % of patients reporting AEs corrected for placebo (irritable bowel syndrome; [2]): 6%
Urgency % Reduction from baseline corrected for placebo (irritable bowel syndrome; [2]): −1%
Vision % of patients reporting AEs corrected for placebo (irritable bowel syndrome; [2]): 0.7%
Constipation % of patients reporting AEs (irritable bowel syndrome; [2]): 6.4%
Dry Mouth % of patients reporting AEs (irritable bowel syndrome; [2]): 9.6%
Global Rating % Reduction from baseline (irritable bowel syndrome; [2]): 21%
Loose Stool % Reduction from baseline (irritable bowel syndrome; [2]): 31%
Pain Score % Reduction from baseline (irritable bowel syndrome; [2]): 28%
Total AE % of patients reporting AEs (irritable bowel syndrome; [2]): 22%
Urgency % Reduction from baseline (irritable bowel syndrome; [2]): 24%
Vision % of patients reporting AEs (irritable bowel syndrome; [2]): 1.3%
Constipation % of patients reporting AEs corrected for placebo (irritable bowel syndrome; [3]): 5.9%
Dry Mouth % of patients reporting AEs corrected for placebo (irritable bowel syndrome; [3]): 4.4%
Global Rating % Reduction from baseline corrected for placebo (irritable bowel syndrome; [3]): −1%
Loose Stool % Reduction from baseline corrected for placebo (irritable bowel syndrome; [3]): 16%
Pain Score % Reduction from baseline corrected for placebo (irritable bowel syndrome; [3]): 0%
Total AE % of patients reporting AEs corrected for placebo (irritable bowel syndrome; [3]): 6%
Urgency % Reduction from baseline corrected for placebo (irritable bowel syndrome; [3]): 8%
Vision % of patients reporting AEs corrected for placebo (irritable bowel syndrome; [3]): 0.6%
Constipation % of patients reporting AEs (irritable bowel syndrome; [3]): 7.8%
Dry Mouth % of patients reporting AEs (irritable bowel syndrome; [3]): 9.6%
Global Rating % Reduction from baseline (irritable bowel syndrome; [3]): 27%
Loose Stool % Reduction from baseline (irritable bowel syndrome; [3]): 39%
Pain Score % Reduction from baseline (irritable bowel syndrome; [3]): 37%
Total AE % of patients reporting AEs (irritable bowel syndrome; [3]): 22%
Urgency % Reduction from baseline (irritable bowel syndrome; [3]): 33%
Vision % of patients reporting AEs (irritable bowel syndrome; [3]): 1.2%
Constipation % of patients reporting AEs corrected for placebo (irritable bowel syndrome; [4]): 11.6%
Dry Mouth % of patients reporting AEs corrected for placebo (irritable bowel syndrome; [4]): 19.8%
Global Rating % Reduction from baseline corrected for placebo (irritable bowel syndrome; [4]): 4%
Loose Stool % Reduction from baseline corrected for placebo (irritable bowel syndrome; [4]): 30%
Pain Score % Reduction from baseline corrected for placebo (irritable bowel syndrome; [4]): 2%
Total AE % of patients reporting AEs corrected for placebo (irritable bowel syndrome; [4]): 15%
Urgency % Reduction from baseline corrected for placebo (irritable bowel syndrome; [4]): 22%
Vision % of patients reporting AEs corrected for placebo (irritable bowel syndrome; [4]): 2.6%
Constipation % of patients reporting AEs (irritable bowel syndrome; [4]): 13.5%
Dry Mouth % of patients reporting AEs (irritable bowel syndrome; [4]): 25%
Global Rating % Reduction from baseline (irritable bowel syndrome; [4]): 32%
Loose Stool % Reduction from baseline (irritable bowel syndrome; [4]): 53%
Pain Score % Reduction from baseline (irritable bowel syndrome; [4]): 39%
Total AE % of patients reporting AEs (irritable bowel syndrome; [4]): 41%
Urgency % Reduction from baseline (irritable bowel syndrome; [4]): 47%
Vision % of patients reporting AEs (irritable bowel syndrome; [4]): 3.2%
Constipation % of patients reporting AEs corrected for placebo (irritable bowel syndrome; [5]): 15.1%
Dry Mouth % of patients reporting AEs corrected for placebo (irritable bowel syndrome; [5]): 30.7%
Global Rating % Reduction from baseline corrected for placebo (irritable bowel syndrome; [5]): 8%
Loose Stool % Reduction from baseline corrected for placebo (irritable bowel syndrome; [5]): 27%
Pain Score % Reduction from baseline corrected for placebo (irritable bowel syndrome; [5]): 3%
Total AE % of patients reporting AEs corrected for placebo (irritable bowel syndrome; [5]): 34%
Urgency % Reduction from baseline corrected for placebo (irritable bowel syndrome; [5]): 26%
Vision % of patients reporting AEs corrected for placebo (irritable bowel syndrome; [5]): 4.6%
Constipation % of patients reporting AEs (irritable bowel syndrome; [5]): 17%
Dry Mouth % of patients reporting AEs (irritable bowel syndrome; [5]): 35.9%
Global Rating % Reduction from baseline (irritable bowel syndrome; [5]): 36%
Loose Stool % Reduction from baseline (irritable bowel syndrome; [5]): 50%
Pain Score % Reduction from baseline (irritable bowel syndrome; [5]): 40%
Total AE % of patients reporting AEs (irritable bowel syndrome; [5]): 50%
Urgency % Reduction from baseline (irritable bowel syndrome; [5]): 41%
Vision % of patients reporting AEs (irritable bowel syndrome; [5]): 5.2%
darifenacin plasma concentration (FIG. 1) [1]: periodic ‘peaking’ of the darifenacin plasma concentration above that of the controlled release curve

Source: patent publication US6653339B2, “Method of treating irritable bowel syndrome” (Pfizer Inc., priority 2001, dated 2003)
